The target of the test is human PAD4 (hPAD4) (Homo sapiens (Human), UniProt Q9UM07). Kind of test: RFMS Human PAD4 Functional Assay 1. In kind it is biochemical. The note with it: RFMS assay 1; 5 nM hPAD4, 250 μM BAEE substrate, 50 μM calcium, 37° C. On the procedure:
RFMS Human PAD4 Functional Assay 1:
Compounds were solubilized in 100% DMSO to achieve all) mM compound concentration. Compound stock solutions were stored at RT. A series of dilutions were prepared in DMSO and mixed 8 times with 20 μL mixing volume. Final top concentration of compound in the assay is 50 μM. Final assay conditions were as follows: • Reaction volume: 26 μl • Assay buffer: 25 mM hepes, pH 7.5, 5 mM NaCl, 1 mM DTT, 0.2 mg/ml BSA, 0.01% CHAPS, 50 μM Calcium, and 5 μM TPEN • Final concentrations: 5 nM hPAD4 enzyme, 250 μM BASE, and 0.5% DMSO • Total incubation time: 30 mins compound and enzyme preincubation at 37° C., 90 min enzyme/substrate reaction, 30 min reaction with phenyl glyoxal at 37° C. • Stop solution: 40 μl 5% TCA in ACN
0.13 μL of compound solution was added to 13 μL of 10 nM PAD4 in assay buffer. After 30 min 13 μl of 500 μM of BAEE was added in 25 mM hepes, pH 7.5, 5 mM NaCl, 1 mM DTT, 0.2 mg/ml BSA, 0.01% CHAPS, 50 μM Calcium, 5 μM TPEN was added and the reaction incubated for 90 min at 37° C. The enzymatic reaction was quenched by addition of 15 μl of 6.1N TCA, 100% Final Concentration is 20%, 35 μl of 8.5 mM phenyl glyoxal (final concentration 4 mM) is then added and the reaction is incubated for 30 min at 37° C.
After 30 minutes the plates are spun down to remove all precipitate. The enzyme reaction was quenched with an equal volume of methanol containing internal standard (modified citrulline). Samples were loaded onto the Rapid Fire RF300 system (Agilent) wherein they were first sipped for 1000 ms and then directly loaded to a C18 separations cartridge using a mixture of acetonitrile containing 0.01% formic acid for 3000 ms desalting. The flow rate of the mobile phase was 1.5 ml/min. Once the samples were eluted from the cartridge, a mobile phase of acetonitrile containing 0.01% formic acid was used to move the samples into the mass spectrometer for 4000 ms at a flow rate of 1.25 ml/min/Sciex API5500 triple quadrupole mass spectrometer (Applied Biosystems) equipped with ESI was used to analyze the peptidyl citrulline and internal standard ions.
MRM transition of product and internal standard were monitored at m/z 424.5 to 350.4 and m/z 293 to 247 respectively. The dwell time for each transition was set at 200 ms, and the ESI voltage was used at 5500 with a source temperature of 400° C. Extracted ion peaks for each transition were integrated using the Rapid Fire Integrator software. Peak area of analyte was normalized with internal standard.).

Sequence of human PAD4 (hPAD4) (Q9UM07 whole entry): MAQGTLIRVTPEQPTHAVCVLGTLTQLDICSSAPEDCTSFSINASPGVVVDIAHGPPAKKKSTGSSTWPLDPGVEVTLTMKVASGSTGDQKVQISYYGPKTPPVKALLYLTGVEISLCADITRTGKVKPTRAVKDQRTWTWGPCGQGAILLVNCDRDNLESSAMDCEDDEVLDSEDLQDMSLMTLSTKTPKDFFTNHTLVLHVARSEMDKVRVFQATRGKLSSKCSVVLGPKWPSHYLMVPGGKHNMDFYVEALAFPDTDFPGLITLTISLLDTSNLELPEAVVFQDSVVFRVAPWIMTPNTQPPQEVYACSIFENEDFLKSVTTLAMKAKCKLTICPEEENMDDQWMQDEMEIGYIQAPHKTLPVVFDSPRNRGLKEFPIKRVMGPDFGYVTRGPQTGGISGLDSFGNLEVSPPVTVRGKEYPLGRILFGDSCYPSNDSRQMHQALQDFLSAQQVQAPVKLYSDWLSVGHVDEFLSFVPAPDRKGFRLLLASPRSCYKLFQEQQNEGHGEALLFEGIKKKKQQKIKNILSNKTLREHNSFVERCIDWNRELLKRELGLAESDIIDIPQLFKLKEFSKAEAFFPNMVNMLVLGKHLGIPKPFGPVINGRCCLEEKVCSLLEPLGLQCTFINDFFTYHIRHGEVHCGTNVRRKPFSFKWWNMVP

The IC50 is the concentration needed to halve the response being measured. Take `Cc1c(-c2cc3ccc(N4CCOCC4=O)nc3n2CC2CC2)nn2cc(C(=O)N3CC4CCC3[C@@H]4N)cc(F)c12` (stereo partly drawn) [Example 267, 4-(2-{6-[(7R)-7-Amino-2-azabicyclo[2.2.1]heptane-2-carbonyl]-4-fluoro-3-methylpyrazolo[1,5-a]pyridin-2-yl}-1-(cyclopropylmethyl)-1H-pyrrolo[2,3-b]pyridin-6-yl)morpholin-3-one]: the IC50 is 50 nM.

For the compound `COc1cc(C(=O)N2CC3CCC2[C@@H]3N)cc2oc(-c3cc4ccc(C)cc4n3CC3CC3)c(C)c12` (stereo partly drawn) [Example 151, ((7R)-7-Amino-2-azabicyclo[2.2.1]heptan-2-yl)(2-(1-(cyclopropylmethyl)-6-methyl-1H-indol-2-yl)-4-methoxy-3-methylbenzofuran-6-yl)methanone], the IC50 turned out to be 325 nM.

With `COc1cc(C(=O)N2CC3CCC2[C@@H]3N)cc2sc(-c3cc4ccc(-c5ccc6c(c5)C(=O)NC6)cc4n3CC3CC3)c(C)c12` (stereo partly drawn) [Example 120, 6-(2-(6-((7R)-7-Amino-2-azabicyclo[2.2.1]heptane-2-carbonyl)-4-methoxy-3-methylbenzo[b]thiophen-2-yl)-1-(cyclopropylmethyl)-1H-indol-6-yl)isoindolin-1-one], the IC50 stood at 250 nM.

Regarding `COc1cc(C(=O)N2CCC[C@@H](N)C2)cn2nc(-c3cc4ccnc(OCCn5cnnc5)c4n3CC3CC3)c(C)c12` [Example 599, (R)-(2-(7-(2-(4H-1,2,4-Triazol-4-yl)ethoxy)-1-(cyclopropylmethyl)-1H-pyrrolo[2,3-c]pyridin-2-yl)-4-methoxy-3-methylpyrazolo[1,5-a]pyridin-6-yl)(3-aminopiperidin-1-yl)methanone], the IC50 worked out at 20 nM.

Consider `Cc1c(-c2cc3ccc(N4CCC[C@@H](O)C4)nc3n2CC2CC2)nn2cc(C(=O)N3CC4CCC3[C@@H]4N)cc(F)c12` (stereo partly drawn) [Example 265, ((7R)-7-Amino-2-azabicyclo[2.2.1]heptan-2-yl)(2-(1-(cyclopropylmethyl)-6-((R)-3-hydroxypiperidin-1-yl)-1H-pyrrolo[2,3-b]pyridin-2-yl)-4-fluoro-3-methylpyrazolo[1,5-a]pyridin-6-yl)methanone], for which the IC50 stood at 110 nM.

As for `Cc1c(-c2cc3ccc(N4CCC(N5CCOC5=O)CC4)cc3n2CC2CC2)nn2cc(C(=O)N3CCC[C@@H](N)C3)ccc12` [Example 364, 3-[1-(2-{6-[(3R)-3-Aminopiperidine-1-carbonyl]-3-methylpyrazolo[1,5-a]pyridin-2-yl}-1-(cyclopropylmethyl)-1H-indol-6-yl)piperidin-4-yl]-1,3-oxazolidin-2-one], the IC50 came out at 1090 nM.

Turning to `COc1cc(C(=O)N2CCC[C@@H](N)C2)cn2nc(-c3cc4ccc(-c5ccc(CNC(C)=O)cc5)cc4n3CC3CC3)c(C)c12` [Example 228, N-{[4-(2-{6-[(3R)-3-Aminopiperidine-1-carbonyl]-4-methoxy-3-methylpyrazolo[1,5-a]pyridin-2-yl}-1-(cyclopropylmethyl)-1H-indol-6-yl)phenyl]methyl}acetamide], the IC50 was determined as 930 nM.

Regarding `Cc1c(-c2cc3ccc(-c4ccc(N5CCCC5=O)cc4)cc3n2CC2CC2)nn2cc(C(=O)N3CC4CCC3[C@@H]4N)ccc12` (stereo partly drawn) [Example 329, 1-[4-(2-{6-[(7R)-7-Amino-2-azabicyclo[2.2.1]heptane-2-carbonyl]-3-methylpyrazolo[1,5-a]pyridin-2-yl}-1-(cyclopropylmethyl)-1H-indol-6-yl)phenyl]pyrrolidin-2-one], the IC50 was determined as 50 nM.

`CO[C@@H](C)C(=O)N1CCC(c2cc(F)cc3cc(-c4nn5cc(C(=O)N6CCC[C@@H](N)C6)ccc5c4C)n(CC4CC4)c23)CC1` [Example 499, (S)-1-(4-(2-(6-((R)-3-Aminopiperidine-1-carbonyl)-3-methylpyrazolo[1,5-a]pyridin-2-yl)-1-(cyclopropylmethyl)-5-fluoro-1H-indol-7-yl)piperidin-1-yl)-2-methoxypropan-1-one]: the IC50 stood at 150 nM.

For the compound `COc1cc(C(=O)N2C[C@H](N)C[C@@H](F)C2)cc2sc(-c3cc4ccc(-c5ccc6c(c5)CNC6=O)nc4n3CC3CC3)c(C)c12` [Example 139, 5-(2-(6-((3R,5R)-3-Amino-5-fluoropiperidine-1-carbonyl)-4-methoxy-3-methylbenzo[b]thiophen-2-yl)-1-(cyclopropylmethyl)-1H-pyrrolo[2,3-b]pyridin-6-yl)isoindolin-1-one], the IC50 stood at 198 nM.

Regarding `COc1cc(C(=O)N2CC3CCC2[C@@H]3N)cn2nc(-c3cc4ccc(-c5cnn(C(C)C)c5)nc4n3CC3CC3)c(C)c12` (stereo partly drawn) [Example 7, ((7R)-7-Amino-2-azabicyclo[2.2.1]heptan-2-yl)(2-(1-(cyclopropylmethyl)-6-(1-isopropyl-1H-pyrazol-4-yl)-1H-pyrrolo[2,3-b]pyridin-2-yl)-4-methoxy-3-methylpyrazolo[1,5-a]pyridin-6-yl)methanone], the IC50 was found to be 412 nM.

For the compound `Cc1c(-c2cc3ccccc3n2CC2CC2)oc2cc(C(=O)N3CC4CCC3[C@@H]4N)ccc12` (stereo partly drawn) [Example 176, ((7R)-7-Amino-2-azabicyclo[2.2.1]heptan-2-yl)(2-(1-(cyclopropylmethyl)-1H-indol-2-yl)-3-methylbenzofuran-6-yl)methanone], the IC50 came out at 229 nM.

Turning to `Cc1c(-c2cc3cccc(OC[C@H]4CCC(=O)N4)c3n2CC2CC2)nn2cc(C(=O)N3CCC[C@@H](N)C3)cc(F)c12` [Example 570, (R)-5-(((2-(6-((R)-3-Aminopiperidine-1-carbonyl)-4-fluoro-3-methylpyrazolo[1,5-a]pyridin-2-yl)-1-(cyclopropylmethyl)-1H-indol-7-yl)oxy)methyl)pyrrolidin-2-one], the IC50 worked out at 180 nM.

As to `COc1cc(C(=O)N2C[C@H](N)C[C@@H](F)C2)cc2sc(-c3cc4ccc(N5CCC(OC)CC5)nc4n3CC3CC3)c(C)c12` [Example 142, ((3R,5R)-3-Amino-5-fluoropiperidin-1-yl)(2-(1-(cyclopropylmethyl)-6-(4-methoxypiperidin-1-yl)-1H-pyrrolo[2,3-b]pyridin-2-yl)-4-methoxy-3-methylbenzo[b]thiophen-6-yl)methanone], the IC50 came to 642 nM.

`Cc1c(-c2cc3ccc(-c4cccc5[nH]nc(F)c45)nc3n2CC2CC2)nn2cc(C(=O)N3CC4CCC3[C@@H]4N)ccc12` (stereo partly drawn) [Example 297, (7R)-2-{2-[1-(Cyclopropylmethyl)-6-(3-fluoro-1H-indazol-4-yl)-1H-pyrrolo[2,3-b]pyridin-2-yl]-3-methylpyrazolo[1,5-a]pyridine-6-carbonyl}-2-azabicyclo[2.2.1]heptan-7-amine]: the IC50 was 190 nM.

Turning to `Cc1c(-c2cc3ccc(-c4cc(Cl)c(CO)cc4F)cc3n2CC2CC2)nn2cc(C(=O)N3C[C@H](N)C[C@@H](F)C3)ccc12` [Example 375, [4-(2-{6-[(3R,5R)-3-Amino-5-fluoropiperidine-1-carbonyl]-3-methylpyrazolo[1,5-a]pyridin-2-yl}-1-(cyclopropylmethyl)-1H-indol-6-yl)-2-chloro-5-fluorophenyl]methanol], the IC50 was 1360 nM.

Take `COc1cc(C(=O)N2CC3CCC2[C@@H]3N)cn2nc(-c3cc4ccc(-c5ccc6c(c5)CNC6=O)cc4n3CC3CC3)c(C)c12` (stereo partly drawn) [Example 24, 5-(2-(6-((7R)-7-Amino-2-azabicyclo[2.2.1]heptane-2-carbonyl)-4-methoxy-3-methylpyrazolo[1,5-a]pyridin-2-yl)-1-(cyclopropylmethyl)-1H-indol-6-yl)isoindolin-1-one]: the IC50 is 31 nM.

Consider `Cc1c(-c2cc3ccc(N4CCNCC4=O)cc3n2CC2CC2)oc2cc(C(=O)N3CC4CCC3[C@@H]4N)ccc12` (stereo partly drawn) [Example 193, 1-(2-(6-((7R)-7-Amino-2-azabicyclo[2.2.1]heptane-2-carbonyl)-3-methylbenzofuran-2-yl)-1-(cyclopropylmethyl)-1H-indol-6-yl)piperazin-2-one], for which the IC50 was 334 nM.

`COc1cc(C(=O)N2CCC[C@@H](N)C2)cn2nc(-c3cc4ccc(N5CCC(N(C)S(C)(=O)=O)CC5)cc4n3CC3CC3)c(C)c12` [Example 254, N-[1-(2-{6-[(3R)-3-Aminopiperidine-1-carbonyl]-4-methoxy-3-methylpyrazolo[1,5-a]pyridin-2-yl}-1-(cyclopropylmethyl)-1H-indol-6-yl)piperidin-4-yl]-N-methylmethanesulfonamide]: the IC50 is 320 nM.

Values taken from patent publication US12473304B2, “Heterocyclic PAD4 inhibitors” (BRISTOL-MYERS SQUIBB COMPANY, priority 2020, dated 2025).
